Test results reported in patent publication EP4603105A1, “PHARMACEUTICAL COMPOSITION CONTAINING CYCLIC COMPOUND HAVING SELECTIVE KRAS INHIBITORY EFFECT AGAINST HRAS AND NRAS” (CHUGAI SEIYAKU KABUSHIKI KAISHA, priority 2022, dated 2024).

How the values were obtained:
[1] = molecular target: GDP-bound KRAS wild-type protein (Homo sapiens, UniProt P01116); test: Binding to KRAS by surface plasmon resonance (SPR), dissociation constant KD; settings: 1:1 binding model
How it was run: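 SPR, 30°C: Avi-biotin RAS·GDP captured via Biotin CAPture (~100–300 RU); running buffer HBS pH 7.4, 1 mM DTT, 10 mM MgCl2, 0.01% Tween 20, 10 µM GDP, 4% DMSO. Single-cycle kinetics, 100 µL/min, 75 s injections; 1:1 model → KD.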

[2] = molecular target: GDP-bound NRAS wild-type protein (Homo sapiens, UniProt P01111); test: Binding to NRAS by surface plasmon resonance (SPR), KD and KD ratio to KRAS; settings: ratio of KD for GDP-bound NRAS wild-type protein to KD for KRAS
Chain of GDP-bound NRAS wild-type protein (P01111 whole entry): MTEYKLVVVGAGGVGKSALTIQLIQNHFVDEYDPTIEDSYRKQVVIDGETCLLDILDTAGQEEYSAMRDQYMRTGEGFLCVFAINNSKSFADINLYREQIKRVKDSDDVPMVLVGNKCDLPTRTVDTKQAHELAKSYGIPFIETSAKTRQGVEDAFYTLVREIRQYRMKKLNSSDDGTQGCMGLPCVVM
How it was run: (§1)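 Running buffer contained 10 µM GDP and 10 mM MgCl2 to keep RAS in the GDP state, with 4% DMSO at pH 7.4. Compounds were flowed at 100 µL/min in 75 s steps of rising concentration over captured biotin-Avi RAS at 30°C. Sensorgrams were fitted 1:1 for KD.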

HRAS wild-type protein = HRAS wild-type protein (Homo sapiens, UniProt P01112); test: Binding to HRAS by surface plasmon resonance (SPR), KD and KD ratio to KRAS; settings: ratio of KD for HRAS wild-type protein to KD for KRAS
Chain of HRAS wild-type protein (P01112 whole entry): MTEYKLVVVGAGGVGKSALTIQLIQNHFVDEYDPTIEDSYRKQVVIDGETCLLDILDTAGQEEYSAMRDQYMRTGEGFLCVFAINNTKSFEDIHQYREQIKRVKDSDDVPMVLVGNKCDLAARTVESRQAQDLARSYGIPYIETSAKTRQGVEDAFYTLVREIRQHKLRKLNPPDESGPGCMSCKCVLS
How it was run: as §1

[3] = test system: human lung cancer strain NCI-H441; test: NCI-H441 cell proliferation inhibitory activity (CellTiter-Glo, 4 days); format: cell-based; settings: NCI-H441 cells, 4 days, read-out: NCl-H441 IC50
How it was run: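 Step one: dispense the test compound in serial DMSO dilutions. Step three: add the reagent and measure […].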

Chain of GDP-bound KRAS wild-type protein (P01116 1-188 isoform P01116-2): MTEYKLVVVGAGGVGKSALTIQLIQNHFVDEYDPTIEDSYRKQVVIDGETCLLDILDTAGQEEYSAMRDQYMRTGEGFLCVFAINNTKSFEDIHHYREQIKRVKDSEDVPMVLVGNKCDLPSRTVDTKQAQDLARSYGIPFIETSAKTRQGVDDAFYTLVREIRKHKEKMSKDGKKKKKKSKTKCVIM

SMILES | Kd [1] | NRAS /KRAS [2] | HRAS /KRAS (HRAS wild-type protein) | IC50 [3]
CCC[C@H]1C(=O)N[C@@H]([C@@H](C)CC)C(=O)N(C2CC2)CC(=O)N(C)[C@H]2C/C=C\CCN(C2=O)[C@@H](Cc2ccc(C)cc2)C(=O)N(C)CC(=O)N[C@@H](CCc2ccc(Cl)c(Cl)c2)C(=O)N2C[C@H](OC3CCC3)C[C@H]2C(=O)NC2(CC(C)(C)C2)C(=O)N(C)[C@@H](C2CCCC2)C(=O)N(C)[C@H](C(=O)N(C)C)CC(=O)N1C [PP2616] | 0.8 nM | A (a compound having 10 or more and less than 20 is denoted as A) | A (a compound having 10 or more and less than 20 is denoted as A) | 66.4 nM
CC[C@H](C)[C@@H]1NC(=O)[C@H](COC)N(C)C(=O)C[C@@H](C(=O)N(C)C)N(C)C(=O)[C@H](C2CCCC2)N(C)C(=O)C2(CC(C)(C)C2)NC(=O)[C@@H]2C[C@@H](OC3CCC3)CN2C(=O)[C@H](CCc2cc(F)c(C(F)(F)F)c(F)c2)NC(=O)CN(C)C(=O)[C@H](CC2CCCCC2)N2CC/C=C\C[C@@H](C2=O)N(C)C(=O)CN(C2CC2)C1=O [PP2618] | 1.4 nM | A (a compound having 10 or more and less than 20 is denoted as A) | A (a compound having 10 or more and less than 20 is denoted as A) | 69.5 nM
CC[C@H](C)[C@@H]1NC(=O)[C@H](COC)N(C)C(=O)C[C@@H](C(=O)N(C)C)N(C)C(=O)[C@H](C2CCCC2)N(C)C(=O)C2(CC(C)(C)C2)NC(=O)[C@@H]2C[C@@H](OC3CCC3)CN2C(=O)[C@H](CCc2cc(F)c(C(F)(F)F)c(F)c2)NC(=O)CN(C)C(=O)[C@H](CC2CCC(F)(F)CC2)N2CC/C=C\C[C@@H](C2=O)N(C)C(=O)CN(C2CC2)C1=O [PP2622] | 0.53 nM | A (a compound having 10 or more and less than 20 is denoted as A) | B (a compound having 3 or more and less than 10 is denoted as B) | 43.8 nM
CCC(CC)[C@H]1C(=O)N(C)[C@H](C(=O)N(C)C)CC(=O)N(C)[C@@H](COC)C(=O)N[C@@H]([C@@H](C)CC)C(=O)N(C2CC2)CC(=O)N(C)[C@H]2C/C=C\CCN(C2=O)[C@@H](CC2CCC(F)(F)CC2)C(=O)N(C)CC(=O)N[C@@H](CCc2cc(F)c(C(F)(F)F)c(F)c2)C(=O)N2C[C@H](OC3CCCC3)C[C@H]2C(=O)NC2(CC(C)(C)C2)C(=O)N1C [PP2627] | 2.6 nM | A (a compound having 10 or more and less than 20 is denoted as A) | A (a compound having 10 or more and less than 20 is denoted as A) | 95.2 nM
CC[C@H](C)[C@@H]1NC(=O)[C@H](COC)N(C)C(=O)C[C@@H](C(=O)N(C)C)N(C)C(=O)[C@H](C2CCCC2)N(C)C(=O)C2(CC(C)(C)C2)NC(=O)[C@@H]2C[C@@H](OC3CCCC3)CN2C(=O)[C@H](CCc2cc(F)c(C(F)(F)F)c(F)c2)NC(=O)CN(C)C(=O)[C@H](CC2CCCCC2)N2CC/C=C\C[C@@H](C2=O)N(C)C(=O)CN(C2CC2)C1=O [PP2630] | 3 nM | A (a compound having 10 or more and less than 20 is denoted as A) | B (a compound having 3 or more and less than 10 is denoted as B) | 190 nM
CCO[C@@H]1C[C@H]2C(=O)NC3(CC(C)(C)C3)C(=O)N(C)[C@@H](C(CC)CC)C(=O)N(C)[C@H](C(=O)N(C)C)CC(=O)N(C)[C@@H](COC)C(=O)N[C@@H]([C@@H](C)CC)C(=O)N3CCC[C@H]3C(=O)N(C)[C@H]3C/C=C\CCN(C3=O)[C@@H](Cc3ccc(C(F)(F)F)cc3)C(=O)N(C)CC(=O)N[C@@H](CCc3ccc(Cl)c(Cl)c3)C(=O)N2C1 [PP2635] | 0.97 nM | AA (a compound having 20 or more is denoted as AA) | A (a compound having 10 or more and less than 20 is denoted as A) | 50.2 nM
CCC[C@H]1C(=O)N[C@@H]([C@@H](C)CC)C(=O)N2CCC[C@H]2C(=O)N(C)[C@H]2C/C=C\CCN(C2=O)[C@@H](Cc2ccc(C(F)F)cc2)C(=O)N(C)CC(=O)N[C@@H](CCc2ccc(Cl)c(Cl)c2)C(=O)N2C[C@H](OCC)C[C@H]2C(=O)NC2(CC(C)(C)C2)C(=O)N(C)[C@@H](C(CC)CC)C(=O)N(C)[C@H](C(=O)N(C)C)CC(=O)N1C [PP2637] | 1 nM | AA (a compound having 20 or more is denoted as AA) | A (a compound having 10 or more and less than 20 is denoted as A) | 61.4 nM
CCC[C@H]1C(=O)N[C@@H]([C@@H](C)CC)C(=O)N2CCC[C@H]2C(=O)N(C)[C@H]2C/C=C\CCN(C2=O)[C@@H](Cc2ccc(C)cc2)C(=O)N(C)CC(=O)N[C@@H](CCc2ccc(Cl)c(Cl)c2)C(=O)N2C[C@H](OCC)C[C@H]2C(=O)NC2(CC(C)(C)C2)C(=O)N(C)[C@@H](C(CC)CC)C(=O)N(C)[C@H](C(=O)N(C)C)CC(=O)N1C [PP2638] | 2.5 nM | AA (a compound having 20 or more is denoted as AA) | A (a compound having 10 or more and less than 20 is denoted as A) | 97 nM
CCC(CC)[C@H]1C(=O)N(C)[C@H](C(=O)N(C)C)CC(=O)N(C)[C@@H](COC)C(=O)N[C@@H]([C@@H](C)CC)C(=O)N2CCC[C@H]2C(=O)N(C)[C@H]2C/C=C\CCN(C2=O)[C@@H](Cc2ccc(C(F)(F)F)cc2)C(=O)N(C)CC(=O)N[C@@H](CCc2ccc(Cl)c(Cl)c2)C(=O)N2C[C@H](OC(C)C)C[C@H]2C(=O)NC2(CC(C)(C)C2)C(=O)N1C [PP2639] | 1.1 nM | AA (a compound having 20 or more is denoted as AA) | A (a compound having 10 or more and less than 20 is denoted as A) | 81.6 nM
CCC[C@H]1C(=O)N[C@@H]([C@@H](C)CC)C(=O)N2CCC[C@H]2C(=O)N(C)[C@H]2C/C=C\CCN(C2=O)[C@@H](Cc2ccc(C)cc2)C(=O)N(C)CC(=O)N[C@@H](CCc2ccc(Cl)c(Cl)c2)C(=O)N2C[C@H](OC(C)C)C[C@H]2C(=O)NC2(CC(C)(C)C2)C(=O)N(C)[C@@H](C(CC)CC)C(=O)N(C)[C@H](C(=O)N(C)C)CC(=O)N1C [PP2641] | 2 nM | AA (a compound having 20 or more is denoted as AA) | A (a compound having 10 or more and less than 20 is denoted as A) | 98.6 nM
CCC(CC)[C@H]1C(=O)N(C)[C@H](C(=O)N(C)C)CC(=O)N(C)[C@@H](COC)C(=O)N[C@@H]([C@@H](C)CC)C(=O)N(C)CC(=O)N(C)[C@H]2C/C=C\CCN(C2=O)[C@@H](Cc2ccc(C(F)(F)F)cc2)C(=O)N(C)CC(=O)N[C@@H](CCc2ccc(Cl)c(Cl)c2)C(=O)N2C[C@H](OC3CCC3)C[C@H]2C(=O)NC2(CC(C)(C)C2)C(=O)N1C [PP2642] | 0.44 nM | AA (a compound having 20 or more is denoted as AA) | A (a compound having 10 or more and less than 20 is denoted as A) | 36.6 nM
CCC[C@H]1C(=O)N[C@@H]([C@@H](C)CC)C(=O)N(C)CC(=O)N(C)[C@H]2C/C=C\CCN(C2=O)[C@@H](Cc2ccc(C)cc2)C(=O)N(C)CC(=O)N[C@@H](CCc2ccc(Cl)c(Cl)c2)C(=O)N2C[C@H](OC3CCC3)C[C@H]2C(=O)NC2(CC(C)(C)C2)C(=O)N(C)[C@@H](C(CC)CC)C(=O)N(C)[C@H](C(=O)N(C)C)CC(=O)N1C [PP2644] | 0.81 nM | AA (a compound having 20 or more is denoted as AA) | A (a compound having 10 or more and less than 20 is denoted as A) | 75 nM
CCC(CC)[C@H]1C(=O)N(C)[C@H](C(=O)N(C)C)CC(=O)N(C)[C@@H](COC)C(=O)N[C@@H]([C@@H](C)CC)C(=O)N2CCC[C@H]2C(=O)N(C)[C@H]2C/C=C\CCN(C2=O)[C@@H](Cc2ccc(C(F)(F)F)cc2)C(=O)N(C)CC(=O)N[C@@H](CCc2ccc(Cl)c(Cl)c2)C(=O)N2C[C@H](OC3CCC3)C[C@H]2C(=O)NC2(CC(C)(C)C2)C(=O)N1C [PP2645] | 1.1 nM | AA (a compound having 20 or more is denoted as AA) | A (a compound having 10 or more and less than 20 is denoted as A) | 86.7 nM
CCC[C@H]1C(=O)N[C@@H]([C@@H](C)CC)C(=O)N2CCC[C@H]2C(=O)N(C)[C@H]2C/C=C\CCN(C2=O)[C@@H](Cc2ccc(C(F)F)cc2)C(=O)N(C)CC(=O)N[C@@H](CCc2ccc(Cl)c(Cl)c2)C(=O)N2C[C@H](OC3CCC3)C[C@H]2C(=O)NC2(CC(C)(C)C2)C(=O)N(C)[C@@H](C(CC)CC)C(=O)N(C)[C@H](C(=O)N(C)C)CC(=O)N1C [PP2646] | 1.6 nM | AA (a compound having 20 or more is denoted as AA) | A (a compound having 10 or more and less than 20 is denoted as A) | 92.6 nM
